“Also recorded” adds a separate entry of the source. Blank lines part the entries; values can stand above or below the molecule they belong to.
Experiments:
PC12 cells [1] = assay: PC12 cell survival assay, zinc toxicity, MTS (Example 1); conditions: 400 μM zinc, 4 hrs, peptide 10^−9M
Method: PC12 cells (Pheochromocytoma cells) (ATCC, Bethesda, Md., USA) were seeded at 3×10^4 cells/cm^2 on poly-L-Lysine coated plastic tissue culture dishes (Corning, Lowell, Mass., USA) to form an adherent monolayer. Cells were maintained in Dulbecco's modified Eagle's medium (DMEM) supplemented with 10% horse serum (HS), 5% fetal calf serum (FCS), 2 mM glutamine, 100 U/ml penicillin and […] streptomycin (Biological Industries, Beit Haemek, Israel). PC12 differentiation was induced by nerve growth factor (NGF, Sigma) at concentrations of 50 ng/ml by replacing half of the medium every other day until the cells acquired a differentiated morphology. Differentiated cells were defined as bearing two or more neurites with lengths equal to or more than twice the diameter of the cell body (P. Lamoureux et al., The Journal of cell biology 110, 71 (January, 1990)). The cells were incubated in 5% CO2 in a humidified incubator at 37° C. The cells were sub-cultured every 5 days at a 4:1 split ratio by pipetting. The medium was changed every 2 or 3 days after adhesion.
Transfections were performed using Lipofectamine RNAiMAX (Invitrogen). Transfection was carried out according to manufacturer's protocol. For rat MAPRE3 knockdown, PC12 cells or neurons were plated in growth medium without antibiotics at concentration of 10^4 cells/0.32 cm^2 such that they will be 30-50% confluent at the time of transfection. To obtain the highest transfection efficiency and low non-specific effects, siRNA transfection was performed in the following optimized conditions: 50 nM for neurons and 25 nM PC12 of each siRNA construct with 0.2 μl Lipofectamine RNAiMAX (Invitrogen) was added per well of the 96-well plate and scaled up for different 24 or 6-well plates, according to the manufacturer's instructions. The medium was changed one day after transfection. 48 and 72 hours later, cells were harvested to assay for gene knockdown at the RNA and protein levels.
The cells were incubated for 4 hrs at 37° C. 5% CO2. Survival was measured using the MTS assay.
Metabolic activity of cells was measured by the CellTiter 96® Aqueous Non-Radioactive Cell Proliferation kit in accordance with the manufacturer's instructions (Promega). The assay uses a colorimetric method for determining the number of viable cells employing a tetrazolium compound [3-(4,5-dimethylthiazol-2-yl)-5-(3-carboxymethoxyphenyl)-2-(4-sulfophenyl)-2H-tetrazolium, MTS] and an electron-coupling reagent, phenazine methosulfate (PMS). MTS is bio-reduced by cells into a formazan product that is detected at 490 nm. The conversion of MTS into the formazan form is accomplished by dehydrogenase enzymes found in metabolically active cells. Thus, the quantity of formazan product as measured by the amount of 490 nm absorbance is directly proportional to the number of living cells in culture (A. H. Cory, T. C. Owen, J. A. Barltrop, J. G. Cory, Cancer Commun 3, 207 (July, 1991)).

[2] = molecular target: T1, full-length human EB3 recombinant protein (Homo sapiens, UniProt Q9UPY8); assay: Sulfolink coupling gel-NAP affinity chromatography with recombinant EB3, western analysis; assay type: binding; conditions: 2 mg soluble peptide incubated with recombinant EB3 and column beads
T1 construct: Full-length human EB3 was subcloned into pEX-N-His vector; 6xHis (N, cleaved yes); made in house; host or cells: E. coli BL21(DE3)
Method: (§1) Column load, flow through, wash and elution fractions were further analyzed by polyacrylamide gel electrophoresis, followed by western analysis with EB3 antibodies. […] Column chromatography, elution and western blots were performed as above. The extract fractions (flow, wash and elution) were separated by electrophoresis followed by protein detection (FIG. 6).

primary cortical neurons = assay: PSD-95 density in primary cortical neuron culture; assay type: cell-based, rat; conditions: neurons treated for 2 hrs
Method: Methods: 1. Primary cultures of neurons were prepared as follows. Newborn rats were sacrificed on postnatal day 1. Cerebral cortex tissue was then dissected and dissociated individually from each pup with the Papain Dissociation System (PDS; Worthington Biochemical Corporation) according to the manufacturer's instructions. 2. Cells were fixed with ice cold methanol, blocked with 2% bovine serum albumin (BSA) and 5% normal goat serum in Tris buffered saline containing tween 20 (TBS-T; 20 mM Tris pH 7.5, 136.8 mM NaCl, and 0.05% v/v Tween 20), and incubated with primary antibody followed by the appropriate secondary antibody. 3. Primary antibodies that were used include: monoclonal anti PSD-95 (ab-2723, Abcam), monoclonal anti Tyr-α-tubulin antibody (YL1/2) (VMA1864, Abcys, Paris, France), polyclonal anti Glu-α-tubulin antibody (L4) (AbC0101, Abcys, Paris, France), DyLight 488-labeled secondary goat anti-mouse IgG, DyLight 633-labeled secondary goat anti-rabbit IgG (KPL, Gaithersburg, Md., USA), Cy3-conjugated secondary goat anti-Rat IgG, (Jackson ImmunoResearch). 4. Images were collected with a Leica SP5 confocal laser scanning microscope (Mannheim, Germany) with 63× oil immersion optics, laser lines at 488, 561, 633 nm. Identical confocal laser scanning microscopy (CLSM) parameters (e.g., scanning line, laser light, gain, and offset etc.) were used for control and NAP treated cells.
For instance, a PSD-95 expression assay using primary cortical neuron cultures established from suitable animals may be performed to confirm a compound's activity in promoting cell plasticity. More specifically, primary cultures of neurons are prepared by first taking cerebral cortex tissue from newborn rats on postnatal day 1. The cerebral cortex tissue is then dissected and dissociated individually from each animal. Cells are fixed with ice cold methanol, blocked (e.g., with bovine serum albumin (BSA) and normal goat serum), and incubated with primary antibody (e.g., monoclonal antibody against PSD-95), optionally followed by the appropriate secondary antibody for imaging purposes. Images of primary neuronal cultures are taken and compared between cultures with or without being exposed to a test compound. An increased PSD-95 expression is indicative of the test compound being capable of promoting or protecting cell plasticity, especially neuronal plasticity.
Cerebral cortex tissue from newborn rats was dissected and dissociated individually from each pup with the Papain Dissociation System (PDS), (Worthington Biochemical Corporation) according to the manufacturer's instructions. Cortical neurons were maintained in Neurobasal medium (NB), (Gibco) supplemented with NeuroCult B27-SM1 ([…]), 1% Glutamax (Gibco), and grown on poly-D-lysine-coated cell culture glass cover slips.
Images were collected with a Leica SP5 confocal laser scanning microscope (Mannheim, Germany) with 63× oil immersion optics, laser lines at 488, 561, 633 nm or with LSM 510 META (Zeiss, Jena, Germany) confocal laser scanning microscope with 63× oil immersion optics, laser lines at 488, 568, 633 nm. When comparing fluorescence intensities, identical CLSM parameters (e.g., scanning line, laser light, gain, and offset etc.) were used. All of the fluorescent signals acquired were above the autofluorescent background as measured from a control slide stained with secondary antibody without a primary antibody. To compare the relative levels of protein expression, the average integrated density (AID) image analysis procedure was used for cell immunostains. In brief, integrated density is defined by the sum of the values of the pixels in the selected region of interest (ROI). This is equivalent to the product of Area and Mean Gray Value. AID for the positive stained area was determined by measuring the fluorescent intensity of the ROI, which is above the positive cut-off intensity. […]

astrocytes = assay: MT organization in astrocytes (FIG. 14); assay type: cell-based, rat
Method: Newborn rats (Harlan, Jerusalem, Israel) were sacrificed by decapitation, and the brain was removed (D. E. Brenneman et al., J Pharmacol Exp Ther 309, 1190 (June, 2004)). The tissue was minced with scissors and placed in Hank's balanced salts solution 1 (S1), containing HBSS (Biological Industries, Beit Haemek, Israel), 15 mM HEPES buffer, pH 7.3 (Biological Industries, Beit Haemek, Israel), and 0.25% trypsin (Biological Industries) in an incubator at 37° C. 5% CO2 for 20 min. The cells were then placed in 5 mL of solution 2 (S2) containing 10% heat inactivated fetal serum (Biological Industries), 0.1% gentamycin sulphate solution (Biological Industries), and 0.1% penicillin-streptomycin-nystatin solution (Biological Industries) in Dulbecco's modified Eagle's medium (DMEM, Sigma, Rehovot, Israel). The cells were allowed to settle and are then transferred to a new tube containing 2.5 mL of S2 and triturated using a Pasteur pipette. Cell density was determined using a hemocytometer (Neubauer Improved, Germany) and 15×10^6 cells/15 mL S2 are inoculated into each 75-cm^2 flask (Corning, Corning, N.Y., USA). Cells are incubated at 37° C. 10% CO2. The medium was changed after 24 h, and cells are grown until confluent.
The flasks were shaken to dislodge residual neurons and oligodendrocytes that may be present. Flasks were then washed with 10 mL cold HBSS×1, HEPES 15 mM. 5 mL of versene-trypsin solution (BioLab, Jerusalem, Israel) were added to each flask, and the flasks are incubated at room temperature for 5 min to remove astrocytes. The flasks were shaken to dislodge the cells. The versenetrypsin solution was neutralized with 5 mL of S2. The cell suspension was collected and centrifuged at 100 g for 10 min. The supernatant was removed and the cells resuspended in S2. Cells were inoculated into 75-cm^2 flasks or plated in 35-mm dishes (Corning, Corning, N.Y., USA) and incubated until confluence at 37° C. 10% CO2. […]

PC12 cells [3] = conditions: ZnCl2 400 μM, peptide 10^−13M
Method: FIG. 15: Rat pheochromocytoma cells (PC12) were seeded on Poly-D-Lysine coated 96-well tissue culture dishes in high concentration (30,000 cells/well). On the day of the experiment the cells were treated with ZnCl2 (400 μM) either alone or in combination with different concentration of SKIP for 4 h. After 4 h the cell viability was analyzed by MTS assay. […] All values are from one experiment performed in hexplicate.
Rat pheochromocytoma cell (PC12, ATCC, Bethesda, Md., USA) were grown in 10-cm tissue culture dishes (Corning). The base medium for this cell line was RPMI-1640 Medium (Invitrogen) supplemented with 10% heat-inactivated horse serum, 5% fetal bovine serum and solution containing 100 U/ml penicillin together with […] streptomycin (Biological Industries, Beit Haemek, Israel). The cells were incubated in 95% air; 5% CO2 in a humidified incubator at 37° C. The medium was changed every 2 to 3 days. The cells were subcultured when cell density reached 4×10^6 cells/ml. The cells were split in a ratio of 1:4.
On the day before the experiment cells were to be harvested, re-suspended and seeded on tissue culture dishes. For cell viability measurements, cells were seeded on Poly-D-Lysine coated 96-well tissue culture dishes (Sigma-Aldrich) at a concentration of 3×10^4 cells/well.
The cell viability is measured by colorimetric method that determines the number of viable cells in culture. This method is based on the bio-reduction of the tetrazolium compound [3-(4,5-dimethylthiazol-2-yl)-5-(3-carboxymethoxyphenyl)-2-(4-sulfophenyl)-2H-tetrazolium; MTS] by living cells into a colored formazan product. This reaction is occurring in the presence of an electron coupling reagent (phenazine ethosulfate; PES). The amount of formazan product is measured by ELISA plate reader at 490 nm and is directly proportional to the number of living cells in culture (CellTiter 96® AQueous One Solution Cell Proliferation Assay; Promega, Madison, Wis., USA).

[4] = molecular target: T2, Full-length human EB3 recombinant protein (human, UniProt Q9UPY8 1-281); assay: competition with soluble peptide on the NAP affinity column; western blot
T2 construct: mature; Full-length protein; also called recombinant EB3; MAPRE3
Method: as §1, with “6). […] In order to verify that EB3 was indeed eluted from the column, beads were taken from the column resin mixed with sample buffer and western blot analysis was performed (FIG. 6—"[…]" most right lane).” for “6).”

T1 sequence (Q9UPY8 whole entry): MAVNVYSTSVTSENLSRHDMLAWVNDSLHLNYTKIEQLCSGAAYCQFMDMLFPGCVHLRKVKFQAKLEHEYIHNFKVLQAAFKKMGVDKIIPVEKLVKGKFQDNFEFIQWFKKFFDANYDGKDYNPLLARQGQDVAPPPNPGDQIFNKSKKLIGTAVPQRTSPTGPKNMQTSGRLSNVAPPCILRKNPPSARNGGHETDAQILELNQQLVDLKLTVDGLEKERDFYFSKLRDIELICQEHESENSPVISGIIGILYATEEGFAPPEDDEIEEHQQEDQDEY
T2 sequence (Q9UPY8 whole entry): as above

Molecule: Acetyl-NAPVSKIPQ-NH2 (Ac-NAPVSKIPQ-NH2)
protection against cell death induced by zinc toxicity (MTS survival) (PC12 cells [1]): provided protection against zinc toxicity
protection against cell death induced by zinc toxicity (MTS survival) (PC12 cells [1]; listed as Ac-SKIP): significantly increased survival
protection against cell death induced by zinc toxicity (MTS survival) (PC12 cells [1]; listed as Acetyl-NAPVSKIPQ): significantly increased survival

Molecule: NAPVAAAAQ [negative control peptide]
competition for EB3 binding to column-bound NAP [2]: no competition
derivative peptides effect on PSD-95 density vs vehicle controls (FIG. 10c) (primary cortical neurons): did not enhance PSD-95 staining; also recorded: not affected

Molecule: NAPVAIPQ [NAPVAIPQ (S5A)]
activity of NAP-like peptide (FIG. 14) (astrocytes): inactive

Molecule: NAPVSAIPQ [negative control peptide]
competition for EB3 binding to column-bound NAP [2]: no competition
derivative peptides effect on PSD-95 density vs vehicle controls (FIG. 10c) (primary cortical neurons): did not enhance PSD-95 staining; also recorded: not affected

Molecule: NAPVSGIPQ (synthetic novel peptide core sequence derived from hybrid microtubule end-binding protein 3 (EB3)-binding microtubule plus-end tracking proteins (+TIPs) and activity- dependent neurotrophic factor (ADNF) active core site (NAP)) [NAPVSGIPQ (SEQ ID NO:5)]
protection against Zn toxicity (MTS viability vs Zn alone) (PC12 cells [3]): showed protection

Molecule: NAPVSIAQ [NAPVSIAQ (P7A)]
activity of NAP-like peptide (FIG. 14) (astrocytes): inactive
effect on MT organization (astrocytes; 4 hours of incubation): did not mimic NAP activity

Molecule: NAPVSRIPQ
protection against cell death induced by zinc toxicity (MTS survival) (PC12 cells [1]): inactive

Molecule: NAPVTRIPQ
protection against cell death induced by zinc toxicity (MTS survival) (PC12 cells [1]): inactive

binding result [4]: binds
Molecule: NAPVSKIPQ

— patent publication US10118943B2, “Compounds and methods for inhibiting cell death” (Ramot at Tel-Aviv University Ltd., priority 2012, dated 2018)
